Laboratory results reported in US4245106A, “Process for the preparation of 1-alkyl-3-aryl-4-pyrazolecarboxylates” (Monsanto Company, priority 1979, dated 1981).

Tests used:
Format in all cases: in vivo
[1] = system: Barnyard grass; test: pre-emergent herbicidal activity test
Method: (§1) Table II summarizes results of tests conducted to determine the pre-emergent as well as the post-emergent herbicidal activity of the compounds. The pre-emergent test was conducted as follows:
(§2) A good grade of top soil was placed in aluminum pans and compacted to a depth of three-eighths to one-half inch from the top of the pan. On the top of the soil was placed a predetermined number of seeds or vegetative propagules of various plant species. The soil required to level fill the pans after seeding or adding vegetative propagules was weighed into a pan. A known amount of the active ingredient applied in a solvent or as a wettable powder and the soil were thoroughly mixed, and used as a cover layer for prepared pans. After treatment the pans were moved into a greenhouse bench where they were watered from below as needed to give adequate moisture for germination and growth.
(§3) A herbicial rating code was used to signify the extent of phytotoxicity of each species. The rating are defined as follows: […]

[2] = system: Bromus tectorum; test: pre-emergent herbicidal activity test
Method: as §1, §2, §3

[3] = system: Canada Thistle; test: pre-emergent herbicidal activity test
Method: as §1, §2, §3

[4] = system: Cocklebur; test: pre-emergent herbicidal activity test
Method: as §1, §2, §3

[5] = system: Johnsongrass; test: pre-emergent herbicidal activity test
Method: as §1, §2, §3

[6] = system: Lambsquarter; test: pre-emergent herbicidal activity test
Method: as §1, §2, §3

[7] = system: Morningglory; test: pre-emergent herbicidal activity test
Method: as §1, §2, §3

[8] = system: Nutsedge; test: pre-emergent herbicidal activity test
Method: as §1, §2, §3

[9] = system: Quackgrass; test: pre-emergent herbicidal activity test
Method: as §1, §2, §3

[10] = system: Smartweed; test: pre-emergent herbicidal activity test
Method: as §1, §2, §3

[11] = system: Velvetleaf; test: pre-emergent herbicidal activity test
Method: as §1, §2, §3

[12] = system: Barnyard grass; test: post-emergent herbicidal activity test
Method: (§4) The post-emergent tests were conducted as follows. The active ingredients are applied in spray form to two or three-week old specimens of various plant species. The spray, a solution or wettable powder suspension containing the appropriate rate of active ingredient to give the desired test rate and a surfactant, is applied to the plants. The treated plants are placed in a greenhouse and unless otherwise noted approximately four weeks later the effects are observed and recorded.

[13] = system: Bromus tectorum; test: post-emergent herbicidal activity test
Method: as §4

[14] = system: Canada Thistle; test: post-emergent herbicidal activity test
Method: as §4

[15] = system: Cocklebur; test: post-emergent herbicidal activity test
Method: as §4

[16] = system: Johnsongrass; test: post-emergent herbicidal activity test
Method: as §4

[17] = system: Lambsquarter; test: post-emergent herbicidal activity test
Method: as §4

[18] = system: Morningglory; test: post-emergent herbicidal activity test
Method: as §4

[19] = system: Nutsedge; test: post-emergent herbicidal activity test
Method: as §4

[20] = system: Quackgrass; test: post-emergent herbicidal activity test
Method: as §4

[21] = system: Smartweed; test: post-emergent herbicidal activity test
Method: as §4

[22] = system: Velvetleaf; test: post-emergent herbicidal activity test
Method: as §4

[23] = *11.2 Kg/Ha, observed approximately 14 days after treatment
[24] = 11.2 Kg/Ha, approximately 28 days after seeding and treating
[25] = 11.2 Kg/Ha, approximately four weeks later
Note: ranges in brackets are in %.

## C=C(Cl)COC(=O)c1cn(C)nc1-c1cccc(C(F)(F)F)c1 [Example 19]
[1]; [23]
  Pre-Emergent herbicidal rating, K Barnyard grass: 2 (50-74)
[2]; [23]
  Pre-Emergent herbicidal rating, J Bromus tectorum: 1 (25-49)
[3]; [23]
  Pre-Emergent herbicidal rating, A Canada Thistle: 1 (25-49)
[4]; [23]
  Pre-Emergent herbicidal rating, B Cocklebur: 0 (0-24)
[5]; [23]
  Pre-Emergent herbicidal rating, I Johnsongrass: 1 (25-49)
[6]; [23]
  Pre-Emergent herbicidal rating, E Lambsquarter: 3 (75-100)
[7]; [23]
  Pre-Emergent herbicidal rating, D Morningglory: 1 (25-49)
[8]; [23]
  Pre-Emergent herbicidal rating, G Nutsedge: 1 (25-49)
[9]; [23]
  Pre-Emergent herbicidal rating, H Quackgrass: 1 (25-49)
[10]; [23]
  Pre-Emergent herbicidal rating, F Smartweed: 2 (50-74)
[11]; [23]
  Pre-Emergent herbicidal rating, C Velvetleaf: 1 (25-49)
[12]; [23]
  Post-Emergent herbicidal rating, K Barnyard grass: 1 (25-49)
[13]; [23]
  Post-Emergent herbicidal rating, J Bromus tectorum: 0 (0-24)
[14]; [23]
  Post-Emergent herbicidal rating, A Canada Thistle: 1 (25-49)
[15]; [23]
  Post-Emergent herbicidal rating, B Cocklebur: 1 (25-49)
[16]; [23]
  Post-Emergent herbicidal rating, I Johnsongrass: 1 (25-49)
[17]; [23]
  Post-Emergent herbicidal rating, E Lambsquarter: 1 (25-49)
[18]; [23]
  Post-Emergent herbicidal rating, D Morningglory: 1 (25-49)
[19]; [23]
  Post-Emergent herbicidal rating, G Nutsedge: 0 (0-24)
[20]; [23]
  Post-Emergent herbicidal rating, H Quackgrass: 0 (0-24)
[21]; [23]
  Post-Emergent herbicidal rating, F Smartweed: 1 (25-49)
[22]; [23]
  Post-Emergent herbicidal rating, C Velvetleaf: 1 (25-49)

## CCSCCOC(=O)c1cn(C)nc1-c1cccc(C(F)(F)F)c1 [Example 23]
[1]; [23]
  Pre-Emergent herbicidal rating, K Barnyard grass: 1 (25-49)
[2]; [23]
  Pre-Emergent herbicidal rating, J Bromus tectorum: 1 (25-49)
[3]; [23]
  Pre-Emergent herbicidal rating, A Canada Thistle: 0 (0-24)
[4]; [23]
  Pre-Emergent herbicidal rating, B Cocklebur: 0 (0-24)
[5]; [23]
  Pre-Emergent herbicidal rating, I Johnsongrass: 0 (0-24)
[6]; [23]
  Pre-Emergent herbicidal rating, E Lambsquarter: 3 (75-100)
[7]; [23]
  Pre-Emergent herbicidal rating, D Morningglory: 1 (25-49)
[8]; [23]
  Pre-Emergent herbicidal rating, G Nutsedge: 0 (0-24)
[9]; [23]
  Pre-Emergent herbicidal rating, H Quackgrass: 0 (0-24)
[10]; [23]
  Pre-Emergent herbicidal rating, F Smartweed: 1 (25-49)
[11]; [23]
  Pre-Emergent herbicidal rating, C Velvetleaf: 1 (25-49)
[12]; [23]
  Post-Emergent herbicidal rating, K Barnyard grass: 1 (25-49)
[13]; [23]
  Post-Emergent herbicidal rating, J Bromus tectorum: 0 (0-24)
[14]; [23]
  Post-Emergent herbicidal rating, A Canada Thistle: 1 (25-49)
[15]; [23]
  Post-Emergent herbicidal rating, B Cocklebur: 1 (25-49)
[16]; [23]
  Post-Emergent herbicidal rating, I Johnsongrass: 0 (0-24)
[17]; [23]
  Post-Emergent herbicidal rating, E Lambsquarter: 2 (50-74)
[18]; [23]
  Post-Emergent herbicidal rating, D Morningglory: 1 (25-49)
[19]; [23]
  Post-Emergent herbicidal rating, G Nutsedge: 0 (0-24)
[20]; [23]
  Post-Emergent herbicidal rating, H Quackgrass: 1 (25-49)
[21]; [23]
  Post-Emergent herbicidal rating, F Smartweed: 1 (25-49)
[22]; [23]
  Post-Emergent herbicidal rating, C Velvetleaf: 1 (25-49)

## CCOC(=O)c1cn(C)nc1-c1ccc(C(F)(F)F)cc1 [Example 17]
[1]; [24]
  Pre-Emergent herbicidal rating, K Barnyard grass: 2 (50-74)
[2]; [24]
  Pre-Emergent herbicidal rating, J Bromus tectorum: 1 (25-49)
[3]; [24]
  Pre-Emergent herbicidal rating, A Canada Thistle: 0 (0-24)
[4]; [24]
  Pre-Emergent herbicidal rating, B Cocklebur: 0 (0-24)
[5]; [24]
  Pre-Emergent herbicidal rating, I Johnsongrass: 0 (0-24)
[6]; [24]
  Pre-Emergent herbicidal rating, E Lambsquarter: 3 (75-100)
[7]; [24]
  Pre-Emergent herbicidal rating, D Morningglory: 0 (0-24)
[8]; [24]
  Pre-Emergent herbicidal rating, G Nutsedge: 1 (25-49)
[9]; [24]
  Pre-Emergent herbicidal rating, H Quackgrass: 0 (0-24)
[10]; [24]
  Pre-Emergent herbicidal rating, F Smartweed: 2 (50-74)
[11]; [24]
  Pre-Emergent herbicidal rating, C Velvetleaf: 0 (0-24)
[12]; [25]
  Post-Emergent herbicidal rating, K Barnyard grass: 0 (0-24)
[13]; [25]
  Post-Emergent herbicidal rating, J Bromus tectorum: 0 (0-24)
[14]; [25]
  Post-Emergent herbicidal rating, A Canada Thistle: 1 (25-49)
[15]; [25]
  Post-Emergent herbicidal rating, B Cocklebur: 0 (0-24)
[16]; [25]
  Post-Emergent herbicidal rating, I Johnsongrass: 0 (0-24)
[17]; [25]
  Post-Emergent herbicidal rating, E Lambsquarter: 0 (0-24)
[18]; [25]
  Post-Emergent herbicidal rating, D Morningglory: 0 (0-24)
[19]; [25]
  Post-Emergent herbicidal rating, G Nutsedge: 0 (0-24)
[20]; [25]
  Post-Emergent herbicidal rating, H Quackgrass: 0 (0-24)
[21]; [25]
  Post-Emergent herbicidal rating, F Smartweed: 0 (0-24)
[22]; [25]
  Post-Emergent herbicidal rating, C Velvetleaf: 0 (0-24)
